Test results reported in patent publication US20040024033A1 (priority 1998, published 2004).

Columns and labels:
[1] = system: human PC-3M prostate carcinoma cells; assay: Antitumor effect against orthotopically injected PC-3M cells; assay type: in vivo, male BALB/c nude mice
Experimental: Human prostate carcinoma PC-3M cells (1×10^6 cells per 20 μl phosphate buffered saline) are injected into the left […] of the prostate of each animal (n=6-9/group) according the method previously described (see Stephenson et al., J. Natl. Cancer Inst. 84, 951-7 (1992)). Treatment is started on day 14 after cell injection. At this time point a mean tumor weight of ˜20 mg is established. Epothilone B is administered either once or once weekly. Mice are sacrificed 42 days post tumor inoculation, and the prostates are carefully removed, dissected free of adhering tissue and weighed. […] Mesenteric lymph nodes are examined for the presence of metastases, dissected free of adhering tissue and weighed.
Tumor weight and body weights are monitored once or twice weekly. All treatments are administered intravenously (i.v.) and are initiated 14 days post cell injection. Treatment with epothilone B varies the dose and frequency of administration. Antitumor activity is expressed as T/C% (mean tumor weight of treated animals divided by the mean tumor weight of control animals multiplied by 100).
1×10^6 PC-3M cells in 20 μL of PBS are injected into the […] of the prostate of each male nude mouse (n=9 per group). Treatments are started on day 14 after tumor cell injection. epothilone B is administered i.v., once at 6 or 8 mg/kg, or once per week at 4 or 5 mg/kg. Antitumor activity is expressed as T/C% (mean tumor weight of treated animals divided by the mean of tumor weight of control animals multiplied by 100). Differences in body weights consider only animals surviving to the end of the experiment (day 42). Statistical analyses on A body weight uses paired t-tests comparing body weights before treatment to the end of treatment; mice weigh˜20-25 g at the start of treatment. Not significant is indicated by the abbreviation ,ns”.

[2] = GLP toxicology study in dogs; assay type: in vivo; conditions: dog
Experimental: The starting dose level is 0.3 mg/m^2. This dose is calculated as one-third of the toxic dose low (TDL) in the most sensitive species studied which, for epothilone B, is the dog. […] Using a factor of 20 to convert mg/kg in the dog to mg/m^2 in humans, this starting dose is calculated as: […]

[3] = system: human estrogen-dependent ZR-75-1 breast tumor; assay: Antitumor effect against s.c. transplanted ZR-75-1 tumors; assay type: in vivo, female BALB/c nude mice
Experimental: Female or male BALB/c nu/nu (nude) mice are kept under sterile conditions (10 to 12 mice per Type III cage) with free access to food and water. Mice weigh between 20 and 25 grams at the time of tumor implantation. Tumors are established by subcutaneous injection of cells (minimum 2×10^6 cells in 100 μl PBS or medium) in carrier mice (4-8 mice per cell line). The resulting tumors are serially passaged for a minimum of three consecutive transplantations prior to start of treatment. Tumor fragments (approx. 25 mg) are implanted s.c. into the left flank of animals with a 13-gauge trocar needle while the mice are exposed to Forene (Abbott, Switzerland) anesthesia.
Tumor growth and body weights are monitored once or twice weekly. All treatments are administered intravenously (i.v.) and are initiated when a mean tumor volume of approximately 100 to 250 mm^3 is attained, depending upon the tumor type. Tumor volumes are determined using the formula […] (see Cancer Chemother. Pharmacol. 24:148-154, [1989]). Treatments with epothilone B vary the dose and the frequency of administration. Comparator agents are administered according to previously determined optimal treatment regimens. In addition to presenting changes in tumor volumes over the course of treatment, antitumor activity is expressed as T/C% (mean increase of tumor volumes of treated animals divided by the mean increase of tumor volumes of control animals multiplied by 100). Tumor regression (%) represents the smallest mean tumor volume compared to the mean tumor volume at the start of treatment, according to the formula Regression (%)=(1−Vend/Vstart)×100 (Vend=final mean tumor volume, Vstart=mean tumor volume at the start of treatment. Any animals in which the tumor has reached a size exceeding approximately 1.5 to 2.5 cm^3 are sacrificed. Details can be found below.
Tumor fragments of approximately 25 mg are implanted into the left flank of each female nude mouse (n=6 per group); a subcutaneous estrogen pellet is placed in the opposite flank. Treatments are started on day 19 after tumor transplantation. epothilone B is administered at 1, 2 or 4 mg/kg, i.v., either once per week (days 19, 26 and 33) or every second week (days 19 and 33). Data presented are from animals surviving to day 47, the last day of controls. Antitumor activity is expressed as T/C% (mean increase of tumor volumes of treated animals divided by the mean increase of tumor volumes of control animals multiplied by 100). Tumor regression (%) represents the final mean tumor volume compared to the mean tumor volume at the start of treatment. Changes (A) in tumor volume represent the tumor volume on the last treatment day minus the tumor volume on the first treatment day.

[4] = Two-week intravenous comparative toxicity study in mice; assay type: in vivo, normal female BALB/c mice
Experimental: In order to assess the sub-chronic intravenous toxicity of epothilone B, a non-GLP two-week i.v. toxicity study in non-tumor bearing, normal female BALB/c mice is conducted, involving analysis of mortality, clinical signs, body weight, food consumption, hematology, clinical biochemistry, urinalysis, and organ weights as well as macro and microscopic examinations. The study is based on two different dosing regimens of epothilone B of 3 mg/kg and 10 mg/kg, respectively, administered on days 1 and 8 (8 animals per group). Half of the animals are killed on day 15 (main group) and necropsy is performed. For the other half (recovery group) a recovery period of 5 weeks is allowed after administration of the second dose before sacrifice and subsequent necropsy on day 43.

[5] = 1 mg/kg, i.v. every 7 days, day 47
[6] = 2 mg/kg, i.v. every 7 days, day 47
[7] = 4 mg/kg, i.v. every 7 days, day 47
[8] = 4 mg/kg, i.v. every 14 days, day 47
[9] = 3 mg/kg i.v. on days 1 and 8, day 15
[10] = 10 mg/kg i.v. on days 1 and 8, day 15

C/C(=C\c1csc(C)n1)[C@@H]1C[C@@H]2O[C@]2(C)CCC[C@H](C)[C@H](O)[C@@H](C)C(=O)C(C)(C)[C@@H](O)CC(=O)O1 [epothilone B]
Δ Body Weight ([1]; 4 mg/kg, i.v. once per week): -1.2 g
Δ Body Weight ([1]; 5 mg/kg, i.v. once per week): -6.8 g
Δ Body Weight ([1]; 6 mg/kg, i.v. once): -1.4 g
Δ Body Weight ([1]; 8 mg/kg, i.v. once): -5.2 g
toxic dose low (TDL) ([2]; most sensitive species, estimated): ~0.5 mg/kg
Mortalities ([2]; 0.1 mg/kg, repeated once 3 weeks later (lower of the 2 doses)): no mortalities
Regression [3, 5]: none
T/C (%) [3, 5]: 86%
Δ Body Weight [3, 5]: 0.3 g
Regression [3, 6]: none
T/C (%) [3, 6]: 40%
Δ Body Weight [3, 6]: -3.5 g
T/C (%) [3, 7]: 1%
Δ Body Weight [3, 7]: -1.2 g
Regression ([3]; 4 mg/kg, i.v. every 7 days, transient): −8%
Regression [3, 8]: none
T/C (%) [3, 8]: 46%
Δ Body Weight [3, 8]: -1.6 g
Mortalities throughout the treatment period (days 1-14) ([4]; 3 mg/kg i.v. on days 1 and 8): No mortalities
Atrophy of the thymus (microscopic) [4, 9]: moderate
Hematology: leukocytes [4, 9]: reduction in the number of leukocytes
Sternal bone marrow, microscopic [4, 9]: minimal to slight erythroid and myeloid atrophy
Survival of the recovery group ([4]; 3 mg/kg i.v. on days 1 and 8, to day 43): all animals of the recovery group survive until the end of the study
Body weight ([4]; 3 mg/kg i.v. on days 1 and 8, treatment period): body weight loss at the 3 mg/kg dose is only apparent in the second week
Mortalities throughout the treatment period (days 1-14) ([4]; 10 mg/kg i.v. on days 1 and 8): No mortalities
Atrophy of the thymus (microscopic) [4, 10]: marked
Spleen, microscopic [4, 10]: minimal lymphoid atrophy
Sternal bone marrow, microscopic [4, 10]: minimal to slight myeloid hypoplasia
Hematology: leukocytes ([4]; 10 mg/kg i.v. on days 1 and 8, day 15, effect more pronounced): reduction in the number of leukocytes
Body weight ([4]; 10 mg/kg i.v. on days 1 and 8, first and second week): Body weight loss is observed for all animals
Intestinal mucosa (small and large intestine), microscopic ([4]; both dose levels (3 and 10 mg/kg), day 15): Minimal single cell necrosis
